Measured values reported in ChEMBL document CHEMBL1201862, “PubChem BioAssay data set” (2004).
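Step 1: Grow cells in 96-well plates. Step 2: Expose to compound for 48 hours at 5 concentrations. Step 3: Interpolate endpoints linearly; if unreached, use highest concentration. GI50 marks 50% less growth.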 The source made the active and inactive calls. Cut-off read from the data, not from the text of the source: active = GI50 up to about 1.1 µM and inactive = higher.

Experiments:
Assay in all cases: NCI tumour cell line growth inhibition, 48 h
SNB-75 = system: SNB-75
A498 = system: A498
CAKI-1 = system: CAKI-1
COLO 205 = system: COLO 205
XF498 = system: XF498
NCI-H522 = system: NCI-H522
MOLT-4 = system: MOLT-4
SK-MEL-5 = system: SK-MEL-5
HCC 2998 = system: HCC 2998
786-0 = system: 786-0
TK-10 = system: TK-10
M14 = system: M14
KM12 = system: KM12
LOX IMVI = system: LOX IMVI
NCI-H23 = system: NCI-H23
OVCAR-3 = system: OVCAR-3
EKVX = system: EKVX
SF-539 = system: SF-539

Measured: GI50

O=C(NN1C(=O)CS(=O)(=O)C1c1cccc(F)c1)c1ccncc1 (stereo not given)
inactive: SNB-75 83.8 µM | A498 > 100 µM | CAKI-1 > 100 µM | COLO 205 > 100 µM | XF498 82.6 µM | NCI-H522 > 100 µM | MOLT-4 > 100 µM | SK-MEL-5 > 100 µM | HCC 2998 > 100 µM | 786-0 > 100 µM | TK-10 > 100 µM | M14 > 100 µM | KM12 > 100 µM | LOX IMVI > 100 µM | NCI-H23 > 10 µM

COC1(OC)c2ccccc2C2(O)c3ccccc3C(=O)C12 (stereo not given)
inactive: SNB-75 29.3 µM | OVCAR-3 28.8 µM | EKVX 48.8 µM | COLO 205 13.4 µM | XF498 17.8 µM | NCI-H522 10.2 µM | MOLT-4 10.9 µM | SK-MEL-5 9.16 µM | HCC 2998 57.1 µM | 786-0 52.6 µM | TK-10 37.3 µM | M14 23.9 µM | KM12 39.9 µM | LOX IMVI 44.7 µM | SF-539 61 µM | NCI-H23 47.4 µM

CC(NC(=O)C(=O)N/N=C1\C[C@@H](c2ccccc2)Nc2ccccc21)c1ccccc1 (stereo not given in full)
inactive: SNB-75 10.7 µM | OVCAR-3 > 100 µM | CAKI-1 > 100 µM | EKVX 17.1 µM | COLO 205 48.2 µM | XF498 18.3 µM | NCI-H522 > 100 µM | HCC 2998 > 100 µM | 786-0 > 100 µM | TK-10 > 100 µM | M14 > 100 µM | KM12 > 100 µM | LOX IMVI > 100 µM | SF-539 > 100 µM | NCI-H23 > 100 µM

Nc1ccc(C(=O)N/C(=C\c2ccc3c(c2)OCO3)c2nc3ccc4c(c3[nH]2)C(=O)c2ccccc2C4=O)cc1
inactive: SNB-75 19.9 µM | OVCAR-3 32.9 µM | A498 14.4 µM | CAKI-1 14.7 µM | EKVX 31.8 µM | COLO 205 52.6 µM | XF498 93.8 µM | NCI-H522 6.75 µM | MOLT-4 4.75 µM | SK-MEL-5 29 µM | HCC 2998 43.3 µM | 786-0 21.2 µM | TK-10 23.1 µM | M14 37.8 µM | KM12 17.8 µM | LOX IMVI 26.1 µM | SF-539 21.6 µM | NCI-H23 14.4 µM

COc1cc2c(cc1O)C(C)Cc1cc3c(cc1N(C)CC2)OCO3 (stereo not given)
inactive: SNB-75 2.45 µM | OVCAR-3 3.03 µM | A498 13.2 µM | CAKI-1 12.1 µM | EKVX 4.26 µM | COLO 205 24.2 µM | XF498 7.19 µM | NCI-H522 2.18 µM | MOLT-4 4.13 µM | SK-MEL-5 2.59 µM | HCC 2998 5.27 µM | 786-0 4.35 µM | TK-10 27.3 µM | M14 3.22 µM | KM12 4.15 µM | LOX IMVI 5.68 µM | SF-539 2.72 µM | NCI-H23 4.07 µM

CN(C)CCNC(=O)c1cccc2nc3c(Cl)cccc3nc12
inactive: SNB-75 7.48 µM | OVCAR-3 6.38 µM | A498 4.63 µM | CAKI-1 > 20.7 µM | EKVX 8.61 µM | COLO 205 3.75 µM | XF498 2.92 µM | NCI-H522 14.3 µM | MOLT-4 2.38 µM | SK-MEL-5 5.06 µM | HCC 2998 8.85 µM | 786-0 7.98 µM | TK-10 4.09 µM | M14 6.24 µM | KM12 5.75 µM | LOX IMVI 3.14 µM | SF-539 4.75 µM | NCI-H23 5.61 µM

CC1=NN2C(c3ccc(C)cc3)=CSC2=NC(C)(C)C1
inactive: SNB-75 > 100 µM | OVCAR-3 > 100 µM | A498 > 100 µM | EKVX > 100 µM | COLO 205 > 100 µM | XF498 54 µM | NCI-H522 > 100 µM | MOLT-4 > 100 µM | SK-MEL-5 > 100 µM | HCC 2998 > 100 µM | 786-0 > 100 µM | TK-10 > 100 µM | M14 > 100 µM | KM12 > 100 µM | LOX IMVI > 100 µM | SF-539 > 100 µM | NCI-H23 > 100 µM

COC(=O)[C@@]1(O)CC(C)C=C1C=O (stereo not given in full)
inactive: SNB-75 > 100 µM | OVCAR-3 53.6 µM | A498 > 100 µM | CAKI-1 > 100 µM | EKVX > 100 µM | COLO 205 > 100 µM | XF498 > 100 µM | NCI-H522 20 µM | MOLT-4 60.8 µM | SK-MEL-5 > 100 µM | HCC 2998 66.5 µM | 786-0 60.5 µM | TK-10 > 100 µM | M14 > 100 µM | KM12 67.5 µM | LOX IMVI 53.5 µM | SF-539 > 100 µM | NCI-H23 > 100 µM
